Experimental data taken from ChEMBL document CHEMBL3046700, “Identification of novel inhibitors of HIV-1 integrase using pharmacophore-based virtual screening combined with molecular docking strategies” (Med Chem Res, 2013).

Biological target: Human immunodeficiency virus type 1 integrase (Human immunodeficiency virus 1, UniProt Q7ZJM1)
Assay: Inhibition of Human immunodeficiency virus 1 integrase strand transfer activity using [32P]5'end-labeled linear 21 mer as substrate incubated for 30 min prior to substrate addition measured after 1 hr

Sequence of Human immunodeficiency virus type 1 integrase (Q7ZJM1 whole entry): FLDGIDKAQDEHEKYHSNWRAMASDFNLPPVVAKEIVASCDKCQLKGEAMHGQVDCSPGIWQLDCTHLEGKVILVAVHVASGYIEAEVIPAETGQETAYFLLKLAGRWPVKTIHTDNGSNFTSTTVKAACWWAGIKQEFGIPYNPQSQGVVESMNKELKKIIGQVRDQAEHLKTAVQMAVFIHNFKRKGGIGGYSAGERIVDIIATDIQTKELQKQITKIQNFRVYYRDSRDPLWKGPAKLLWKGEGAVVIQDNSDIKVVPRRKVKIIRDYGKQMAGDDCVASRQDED

Row | Compound | IC50 [µM]
1 | Cc1cc2c(cc1Cl)SC(C(=O)c1ccc(F)cc1)=NS2(=O)=O | 42
2 | NNS(=O)(=O)c1cccc(OCC(=O)O)c1 | 8.7
3 | Cc1ccc(-n2ncnc2-c2nc3ccccc3nc2NS(=O)(=O)c2cc(C(=O)Nc3ccccc3)c(Cl)cc2S)cc1 | 10
4 | Cc1cc(S(=O)(=O)Nc2nnc3c4scc(C)c4ncn23)c(S)cc1Cl | 4.26
5 | O=C(Oc1ccc(/C=C/S(=O)(=O)CS(=O)(=O)/C=C/c2ccc(OC(=O)c3ccccc3)c(OC(=O)c3ccccc3)c2)cc1OC(=O)c1ccccc1)c1ccccc1 | 700
6 | Cc1cc2nc3nc(N)nc(NS(=O)(=O)c4cc(C)c(Cl)cc4S)n3c2cc1C | 7.41
7 | COc1ccc(C(=O)C2=NS(=O)(=O)c3cc(C)c(Cl)cc3S2)cc1 | 12
8 | CC(C)c1nc(C(=O)NCc2ccc(F)cc2)c(O)c(=O)n1C | 0.14
9 | O=C1NC(=S)SC1NS(=O)(=O)c1ccc(/N=N/c2ncccn2)cc1 (stereo not given) | 14.1
10 | O=S(=O)(/C=C/c1ccc(O)c(O)c1O)CS(=O)(=O)/C=C/c1ccc(O)c(O)c1O | 0.9
